According to article PMC11597353, “Synthesis of Novel Gefitinib-Conjugated 1,2,3-Triazole Derivatives and Their Effect of Inducing DNA Damage and Apoptosis in Tumor Cells” (Molecules, 2024):

What was measured:
Type in all cases: cell-based, human
HepG2 cells [1] = assay: Annexin V-FITC/PI dual staining, flow cytometry apoptosis; conditions: 48 h
Description: HepG2 cells were treated with DMSO or different concentrations of 11m and 11t for 48 h, followed by staining with Annexin-V and PI. The proportion of apoptotic cells was then analyzed using flow cytometry. […] Compared to the control group, the proportion of apoptotic cells increased gradually with increasing drug concentrations (p < 0.01, p < 0.05).
HepG2 cells were seeded in 6-well plates at a density of […] and incubated for 24 h. They were then treated with 11m or 11t at concentrations of 2, 4, and 8 μM for 48 h. After digestion with trypsin without EDTA and washing with PBS, the cells were resuspended in 500 µL Binding Buffer at a concentration of 1 × 10^6 cells/mL. Then, 5 μL of Annexin V-FITC was added, mixed well, followed by the addition of 5 μL Propidium Iodide, mixed gently, and incubated in the dark at room temperature (25 °C) for 10 min. Detection was performed using a flow cytometer (BD Accuri™ C6 Plus) within 1 h.

HepG2 cells [2] = assay: Transwell migration assay; conditions: HepG2, 2, 4, 8 μM, 48 h, vs control, p < 0.01
Text: (§1) To investigate the effect of the compounds on the migration of wild-type liver cancer cells, we conducted wound healing and Transwell assays to assess changes in the migration ability of HepG2 cells after treatment with compounds 11m and 11t. […] The Transwell migration assay, another important method for evaluating cell migration, involves seeding tumor cells in a chamber and assessing their migration ability by counting the number of cells that pass through the membrane. […] These findings indicate that compounds 11m and 11t can inhibit the migration ability of liver cancer cells in a concentration-dependent manner.
HepG2 cells were starved in serum-free Gibco DMEM for 24 h, then seeded in the upper chamber of a 24-well Transwell plate (Corning Inc., Corning, NY, USA) at a density of 5 × 10^5 cells/mL. 11m or 11t was added to achieve final concentrations of 0, 2, 4, and 8 μM. The upper chamber’s total volume was 200 μL, while the lower chamber contained 600 μL of Gibco DMEM with 20% serum. After 48 h of incubation, the culture medium was washed off with PBS, and the cells were fixed with 4% paraformaldehyde at room temperature for 20 min. […] Images were taken under an inverted microscope, and quantification was performed using ImageJ.

HepG2 cells [3] = assay: Scratch wound healing assay
Text: as §1
HepG2 cells were seeded in 24-well plates, and when the cell density reached 95%, a vertical scratch was made along the edge of the plate cover using a yellow pipette tip. After washing with PBS, images of the scratches were taken at 0 h under a microscope, and each well was treated with 11m or 11t (0, 2, 4, and 8 μM) and incubated in a cell culture incubator. Images were taken at 12, 24, and 48 h after the scratch was made.

p-H2AX in HepG2 cells = assay: DNA damage immunofluorescence and Western blot of p-H2AX; conditions: HepG2, 2, 4, 8 μM
Description: Previous studies have reported that the phosphorylation of H2AX is a highly specific and sensitive molecular marker of DNA damage. To determine whether the inhibitory effects of compounds 11m and 11t on HepG2 cells are related to p-H2AX, we conducted immunofluorescence and Western blot analyses.
HepG2 cells were seeded in laser confocal culture dishes (Nest, Wuxi, China) and incubated for 24 h, followed by treatment with 11m or 11t (2, 4, and 8 μM) for 24 h. After washing with PBS, cells were fixed with 4% paraformaldehyde at room temperature for 20 min. After washing with PBS, cells were permeabilized with 0.5% Triton X-100 for 20 min, followed by further washing with PBS. Cells were then blocked with goat serum at room temperature for 1 h, followed by incubation with p-H2AX (Cell Signaling Technology, Beverly, MA, USA) at a dilution of 1:500 overnight at 4 °C. After washing with PBS, cells were incubated with Cy3 (Proteintech, Wuhan, China) at a dilution of 1:100 in the dark at room temperature for 1 h. After washing with PBS, nuclei were stained with DAPI for 5 min. Cells were observed and imaged using an oil immersion lens under a laser confocal microscope (Nikon, Tokyo, Japan).
HepG2 cells were seeded in 6-well plates and incubated for 24 h. […] Protein supernatants were mixed with loading buffer, denatured at 100 °C for 10 min, and quantified using BCA. […]

[4] = system: Bcl-2/Caspase-3/PARP signaling pathway; assay: Western blot of apoptosis-related proteins in HepG2 cells; conditions: 48 h; for expression level of Bcl-2 / expression level of Caspase-3 / expression level of Caspase-9 / expression level of PARP / level of cleaved Caspase-3 / level of cleaved PARP: HepG2, 2, 4, 8 μM; for expression of Bax: HepG2, with increasing drug concentration
Text: We conducted an in-depth study on the mechanisms of apoptosis induced by compounds 11m and 11t (Figure 9). The Bcl-2 protein family is located upstream in the apoptosis signaling pathway, with Bcl-2 exerting anti-apoptotic and pro-proliferative effects by inhibiting the release of cytochrome C (cyt-c) from the mitochondria. Previous studies have reported that many anticancer drugs exert pro-apoptotic effects by downregulating Bcl-2. When apoptosis occurs, the expression level of Bcl-2 is suppressed, cyt-c is released, and it binds to apoptotic protease activating factor (Apaf-1) to form the apoptosome, triggering a cascade reaction involving the Caspase family proteins. The apoptosome first promotes the activation of Caspase-9, which in turn activates Caspase-3, forming cleaved Caspase-3. Cleaved Caspase-3 further activates downstream PARP proteins, ultimately promoting apoptosis. […] After treating HepG2 cells with different concentrations of the compounds for 48 h, we extracted cellular proteins and used Western blotting to detect changes in the expression of apoptosis-related proteins. […] The expression levels of Caspase-3, Caspase-9, and PARP decreased with increasing drug concentration, whereas the levels of cleaved Caspase-3 and cleaved PARP increased.
HepG2 cells were seeded in 6-well plates and incubated for 24 h. They were then treated with 11m or 11t at concentrations of 2, 4, or 8 μM for 48 h. The cells were harvested, and cytoplasmic and nuclear proteins were extracted using cell lysis buffer from Beyotime Biotechnology (Shanghai, China). Protein supernatants were mixed with loading buffer, denatured at 100 °C for 10 min, and quantified using BCA. Equal amounts of protein, along with molecular weight markers, were loaded onto a 12% SDS-PAGE gel and separated by electrophoresis for 2 h. The separated proteins were transferred onto NC membranes, and nonspecific binding sites on the membranes were blocked with 5% skim milk. Membranes were incubated with primary antibodies overnight at 4 °C, followed by incubation with HRP-conjugated secondary antibodies (goat anti-rabbit or goat anti-mouse IgG) at room temperature for 2 h. Protein bands were visualized on NC membranes using ECL ultra-sensitive chemiluminescence solution and a Bio-Rad gel imaging and analysis system.

| Structure (SMILES) | total proportion of apoptotic HepG2 cells (HepG2 cells [1]; 2 μM) [%] | total proportion of apoptotic HepG2 cells (HepG2 cells [1]; 4 μM) [%] | total proportion of apoptotic HepG2 cells (HepG2 cells [1]; 8 μM) [%] | number of cells that migrated through the microporous membrane (HepG2 cells [2]) | wound-healing rate (HepG2 cells [3]; HepG2, 2 μM, 12 h) [%] | wound-healing rate (HepG2 cells [3]; HepG2, 2 μM, 24 h) [%] | wound-healing rate (HepG2 cells [3]; HepG2, 2 μM, 48 h) [%] | wound-healing rate (HepG2 cells [3]; HepG2, 4 μM, 12 h) [%] | wound-healing rate (HepG2 cells [3]; HepG2, 4 μM, 24 h) [%] | wound-healing rate (HepG2 cells [3]; HepG2, 4 μM, 48 h) [%] | wound-healing rate (HepG2 cells [3]; HepG2, 8 μM, 12 h) [%] | wound-healing rate (HepG2 cells [3]; HepG2, 8 μM, 24 h) [%] | wound-healing rate (HepG2 cells [3]; HepG2, 8 μM, 48 h) [%] | expression of p-H2AX (p-H2AX in HepG2 cells) | expression level of Bcl-2 [4] | expression level of Caspase-3 [4] | expression level of Caspase-9 [4] | expression level of PARP [4] | level of cleaved Caspase-3 [4] | level of cleaved PARP [4] | also measured |
| --- | --- | --- | --- | --- | --- | --- | --- | --- | --- | --- | --- | --- | --- | --- | --- | --- | --- | --- | --- | --- | --- |
| COc1cc2ncnc(Nc3cccc(-c4cn(Cc5ccc(I)cc5)nn4)c3)c2cc1OCCCN1CCOCC1 [Compound 11m, N-(3-(1-(4-iodobenzyl)-1H-1,2,3-triazol-4-yl)phenyl)-7-methoxy-6-(3-morpholinopropoxy)quinazolin-4-amine] | 1.59 | 9.46 | 31.66 | significantly reduced | 14.32 | 20.33 | 41.13 | 13.89 | 20.60 | 36.35 | 8.96 | 16.39 | 18.48 | increased | decreased | decreased | decreased | decreased | increased | increased | expression of Bax [4]: increased |
| COc1cc2ncnc(Nc3cccc(-c4cn(Cc5cccc(I)c5)nn4)c3)c2cc1OCCCN1CCOCC1 [Compound 11t, N-(3-(1-(3-iodobenzyl)-1H-1,2,3-triazol-4-yl)phenyl)-7-methoxy-6-(3-morpholinopropoxy)quinazolin-4-amine] | 13.44 | 33.57 | 62.82 | significantly reduced | 11.03 | 16.02 | 35.36 | 14.18 | 25.67 | 33.66 | 9.87 | 13.26 | 19.54 | increased | decreased | decreased | decreased | decreased | increased | increased | expression of Bax [4]: increased |
